Measurements as given in US20140350078A1, “CONTROLLING REGULATORY T CELL FUNCTION” (NEW YORK UNIVERSITY, priority 2011, published 2014).

Legend:
[1] = system: Treg suppressive function; test: In vitro suppression assay (Tregs co-cultured with CD4+CD25- T cells at 1:3); format: cell-based, human; conditions: pre-treatment of Treg at 1 μM for 30 minutes, supernatants after 48 hours
Experimental: In Vitro Suppression Assays—CD4^+CD25^+ T cells were treated or not, washed, and added at a ratio of 1:3 ([…]) to CD4^+CD25^− T cells at final concentration of 2×10^6 per mL (cytokine secretion) or 2×10^5 per mL (proliferation). The cells were co-cultured on anti-CD3 mAb (5 μg/mL) pre-coated 24-well plates for 24-48 hours (cytokine secretion) or 96 hours (proliferation). Human TNF-α (210-TA) was purchased from R&D Systems and added to co-cultures where indicated. […] Cytokine secretion was determined by ELISA as described (Zanin-Zhorov et al., “Protein Kinase C-Theta Mediates Negative Feedback on Regulatory T Cell Function,” Science 328:372-376 (2010), which is hereby incorporated by reference in its entirety), using human IFN-γ Cytoset (Biosource) and IL-17 and -4 (Invitrogen). Proliferation was assessed by carboxyfluorescein diacetate succinimidyl ester (CFSE) dilution as described (Tran et al., “Analysis of Adhesion Molecules, Target Cells, and Role of IL-2 in Human FOXP3+ Regulatory T Cell Suppressor Function,” J. Immunol. 182:2929-2938 (2009), which is hereby incorporated by reference in its entirety).

[2] = system: Dlgh1 recruitment to the IS in Tregs; test: Dlgh1 recruitment to the immunological synapse on planar lipid bilayers, imaged by TIRFM; format: cell-based, human; conditions: Tregs from healthy donors, 50 ng/mL overnight
Experimental: Planar lipid bilayers containing anti-CD3 antibodies (5 μg/mL) and ICAM-1 (250 molecules per mm^2) were prepared in parallel-plate flow cells as described (Zanin-Zhorov et al., “Protein Kinase C-Theta Mediates Negative Feedback on Regulatory T Cell Function,” Science 328:372-376 (2010), which is hereby incorporated by reference in its entirety). The flow cell containing the bilayers was warmed up to 37° C.; cells were injected in 500 μL of Hepes-buffered saline containing 1% human serum albumin; and images were collected on a custom automated Nikon inverted fluorescence microscope.
All TIRF imaging was performed on the custom automated Nikon inverted fluorescence microscope using the 100×/1.45 N.A. TIRF objective from Nikon. […]
The pro-inflammatory mediator TNF-α inhibits suppressive activity and down-regulates Foxp3 in human Treg (Valencia et al., “TNF Downmodulates the Function of Human CD4+CD25hi T-Regulatory Cells,” Blood 108(1):253-261 (2006); Zanin-Zhorov et al., “Protein Kinase C-Theta Mediates Negative Feedback on Regulatory T Cell Function,” Science 328(5976):372-376 (2010), both of which are hereby incorporated by reference in their entirety). To investigate whether Dlgh1 recruitment to IS correlates with suppressive function of Treg, Treg was incubated with TNF-α overnight and then analyzed Dlgh1 recruitment to the IS as described above. […]

[3] = system: Treg suppressive function; conditions: literature (Valencia et al.; Zanin-Zhorov et al.); cited from earlier work
Foxp3 = conditions: literature (Valencia et al.; Zanin-Zhorov et al.); cited from earlier work

Compound	ability of Treg to suppress IFN-γ secretion from CD4+CD25- T cells [1]	levels of Dlgh1 at IS in Tregs [2]	suppressive activity of human Treg [3]	Foxp3 in human Treg (Foxp3)
C[S+]([O-])c1ccc(-c2nc(-c3ccncc3)c(-c3ccc(F)cc3)[nH]2)cc1 (stereo not shown) [SB203580]	significantly down-regulated			
TNF-α		significantly reduced	inhibits	down-regulates
